Results taken from ChEMBL document CHEMBL5338790, “Discovery of Subcellular-Targeted Aza-BODIPY Photosensitizers for Efficient Photodynamic Antitumor Therapy” (J Med Chem, 2023).
The source made the active and inactive calls. The rule behind the calls is not given here.

Key:
[1] = Toxicity in Balb/C nu/nu mouse xenografted with human HeLa cells assessed as change in heart histology at 2.5 umol/kg, iv with photo-irradiation at 30 J/cm2 after 1 hr of compound administration measured after 24 days by H and E staining based analysis; assay type: organism-based; conditions: in vivo, 576 h, dose 2.5 µmol/kg, time 24 day
[2] = Cytotoxicity against mouse B16-F10 cells assessed as inhibition of cell viability under dark condition incubated for 27 hrs by CCK8 assay; assay type: toxicity, cell-based
[3] = Cytotoxicity against HUVEC cells assessed as inhibition of cell viability under dark condition incubated for 27 hrs by CCK8 assay; assay type: toxicity, cell-based; conditions: human
[4] = Drug localization in mitochondria of human HeLa cells at 5 uM incubated for 30 mins by MitoTracker Green FM dye based confocal scanning microscopic analysis; assay type: ADME; conditions: 0.5 h
[5] = Drug localization in lysosome of human HeLa cells at 5 uM incubated for 30 mins by Lyso-tracker Green DND-26 dye based confocal scanning microscopic analysis; assay type: ADME, subcellular; conditions: 0.5 h
HeLa [6] = test: Induction of ROS production in human HeLa cells preincubated for 2 hrs followed by H2DCFDA probe exposure for 30 mins and subsequent removal of probe with photo-irradiation at 16 J/cm2 by confocal scanning microscopic analysis; assay type: functional, cell-based; conditions: dose <= 200.0 nM, time 2.5 hrs
HeLa [7] = test: Induction of ROS production in human HeLa cells upto 200 nM preincubated for 2 hrs followed by H2DCFDA probe exposure for 30 mins and subsequent removal of probe by confocal scanning microscopic analysis; assay type: functional, cell-based; conditions: time 2.5 hrs
HeLa [8] = test: Induction of apoptosis in human HeLa cells assessed as necrotic cells at 100 nM incubated for 3 hrs by Annexin V-FITC/PI staining based flow cytometry relative to control; assay type: toxicity, cell-based; conditions: 0.1 µM
HeLa [9] = test: Induction of apoptosis in human HeLa cells assessed as viable cells at 12.5 nM incubated for 3 hrs with photo-irradiation at 54 J/cm2 by Annexin V-FITC/PI staining based flow cytometry relative to control; assay type: functional; conditions: light or radiation study, read-out: Activity
HeLa [10] = test: Induction of apoptosis in human HeLa cells assessed as early apoptotic cells at 12.5 nM incubated for 3 hrs with photo-irradiation at 54 J/cm2 by Annexin V-FITC/PI staining based flow cytometry relative to control; assay type: functional
HeLa [11] = test: Induction of apoptosis in human HeLa cells assessed as necrotic cells at 12.5 nM incubated for 3 hrs with photo-irradiation at 54 J/cm2 by Annexin V-FITC/PI staining based flow cytometry relative to control; assay type: functional
HeLa [12] = test: Induction of apoptosis in human HeLa cells assessed as viable cells at 25 nM incubated for 3 hrs with photo-irradiation at 54 J/cm2 by Annexin V-FITC/PI staining based flow cytometry relative to control; assay type: functional; conditions: light or radiation study, read-out: Activity
HeLa [13] = test: Induction of apoptosis in human HeLa cells assessed as early apoptotic cells at 25 nM incubated for 3 hrs with photo-irradiation at 54 J/cm2 by Annexin V-FITC/PI staining based flow cytometry relative to control; assay type: functional
HeLa [14] = test: Induction of apoptosis in human HeLa cells assessed as late apoptotic cells at 25 nM incubated for 3 hrs with photo-irradiation at 54 J/cm2 by Annexin V-FITC/PI staining based flow cytometry relative to control; assay type: functional
HeLa [15] = test: Induction of apoptosis in human HeLa cells assessed as necrotic cells at 25 nM incubated for 3 hrs with photo-irradiation at 54 J/cm2 by Annexin V-FITC/PI staining based flow cytometry relative to control; assay type: functional
HeLa [16] = test: Induction of apoptosis in human HeLa cells assessed as viable cells at 50 nM incubated for 3 hrs with photo-irradiation at 54 J/cm2 by Annexin V-FITC/PI staining based flow cytometry relative to control; assay type: functional; conditions: light or radiation study, read-out: Activity
HeLa [17] = test: Induction of apoptosis in human HeLa cells assessed as late apoptotic cells at 50 nM incubated for 3 hrs with photo-irradiation at 54 J/cm2 by Annexin V-FITC/PI staining based flow cytometry relative to control; assay type: functional
HeLa [18] = test: Induction of apoptosis in human HeLa cells assessed as late apoptotic cells at 100 nM incubated for 3 hrs with photo-irradiation at 54 J/cm2 by Annexin V-FITC/PI staining based flow cytometry relative to control; assay type: functional
HeLa [19] = test: Induction of apoptosis in human HeLa cells assessed as necrotic cells at 100 nM incubated for 3 hrs with photo-irradiation at 54 J/cm2 by Annexin V-FITC/PI staining based flow cytometry relative to control; assay type: functional
HeLa [20] = test: Induction of apoptosis in human HeLa cells assessed as increase in percentage of apoptosis/necrosis at 25 nM incubated for 3 hrs with photo-irradiation at 54 J/cm2 by Annexin V-FITC/PI staining based flow cytometry relative to control; assay type: functional
HeLa [21] = test: Induction of apoptosis in human HeLa cells assessed as increase in percentage of apoptosis/necrosis at 50 nM incubated for 3 hrs with photo-irradiation at 54 J/cm2 by Annexin V-FITC/PI staining based flow cytometry relative to control; assay type: functional
HeLa [22] = test: Disruption of lysosomes in human HeLa cells at 100 nM incubated for 3 hrs by AO staining based confocal scanning microscopy; assay type: functional, cell-based
HeLa [23] = test: Disruption of lysosomes in human HeLa cells at 50 to 100 nM incubated for 3 hrs with photo-irradiation at 16 J/cm2 by AO staining based confocal scanning microscopy; assay type: functional, cell-based; conditions: dose 50-100 nM
[24] = Drug distribution in spleen of Balb/C nu/nu mouse xenografted with human HeLa cells at 2.5 umol/kg, iv measured for 1 hr by IVIS imaging analysis; assay type: ADME, organism-based; conditions: in vivo, dose 2.5 µmol/kg
[25] = Drug distribution in tumor of Balb/C nu/nu mouse xenografted with human HeLa cells at 2.5 umol/kg, iv measured for 1 hr by IVIS imaging analysis; assay type: ADME, organism-based, Neoplasm; conditions: in vivo, dose 2.5 µmol/kg
[26] = Drug distribution in lungs of Balb/C nu/nu mouse xenografted with human HeLa cells at 2.5 umol/kg, iv measured for 24 hr by IVIS imaging analysis; assay type: ADME, organism-based, Lung; conditions: in vivo, dose 2.5 µmol/kg
[27] = Drug distribution in kidneys of Balb/C nu/nu mouse xenografted with human HeLa cells at 2.5 umol/kg, iv measured for 24 hr by IVIS imaging analysis; assay type: ADME, organism-based, Kidney; conditions: in vivo, dose 2.5 µmol/kg
HeLa [28] = test: Antitumor activity against human HeLa cells xenografted in Balb/C nu/nu mouse assessed as tumor growth inhibition at 2.5 umol/kg, iv with photo-irradiation at 30 J/cm2 after 1 hr of compound administration measured for 24 days; assay type: functional, organism-based; conditions: dose 2.5 µmol/kg, time 24.0 day
[29] = Toxicity in Balb/C nu/nu mouse xenografted with human HeLa cells assessed as increase in body weight at 2.5 umol/kg, iv with photo-irradiation at 30 J/cm2 after 1 hr of compound administration measured for 24 days; assay type: organism-based; conditions: in vivo, 576 h, dose 2.5 µmol/kg, time 24 day
[30] = Toxicity in Balb/C nu/nu mouse xenografted with human HeLa cells assessed as change in spleen histology at 2.5 umol/kg, iv with photo-irradiation at 30 J/cm2 after 1 hr of compound administration measured after 24 days by H and E staining based analysis; assay type: organism-based; conditions: in vivo, 576 h, dose 2.5 µmol/kg, time 24 day
[31] = Toxicity in Balb/C nu/nu mouse xenografted with human HeLa cells assessed as change in kidney histology at 2.5 umol/kg, iv with photo-irradiation at 30 J/cm2 after 1 hr of compound administration measured after 24 days by H and E staining based analysis; assay type: organism-based; conditions: in vivo, 576 h, dose 2.5 µmol/kg, time 24 day

Drug uptake [4]: Not Active | Drug uptake [5]: Active | Drug uptake [24]: Active | Drug uptake [25]: Active | Drug uptake [26]: Not Active | Drug uptake [27]: Not Active
SMILES: COc1ccc2c(c1)CCc1c(-c3ccccc3)c3n(c1-2)[B-](F)(F)[N+]1=C(c2ccc(OCC(=O)NCCCN4CCOCC4)cc2)C(I)=C(c2ccccc2)C1=N3
Activity [1]: Non-Toxic | IC50 at 27 h [2]: > 50 µM | IC50 at 27 h [3]: > 50 µM | Activity (HeLa [6]): Dose-Dependent Effect | Activity (HeLa [7]): inactive | Activity (HeLa [8]): 1.04% | viability at 0.0125 µM (HeLa [9]): 88.1% | Activity (HeLa [10]): 5.28% | Activity (HeLa [11]): 1.07% | viability at 0.025 µM (HeLa [12]): 47% | Activity (HeLa [13]): 36.45% | Activity (HeLa [14]): 12.87% | Activity (HeLa [15]): 3.67% | viability at 0.05 µM (HeLa [16]): 25.4% | Activity (HeLa [17]): 13.58% | Activity (HeLa [18]): 16.6% | Activity (HeLa [19]): 0.57% | Activity (HeLa [20]): 13.1% | Activity (HeLa [21]): 41.8% | Activity (HeLa [22]): inactive | Activity (HeLa [23]): Active | Activity (HeLa [28]): Active | Activity [29]: Non-Toxic | Activity [30]: Non-Toxic | Activity [31]: Non-Toxic
